# Assay results from PMC3277886, “High-affinity fluorescent ligands for the 5-HT3 receptor” (Bioorganic & Medicinal Chemistry Letters, 2012).
# Read-outs that look alike come from different tables or passages of the source.
# How the values were obtained:
# human 5-HT3AR [1] = target: T1, human 5-HT3AR (Homo sapiens, UniProt P46098); conditions: read-out: Ki (nM) mean ± SEM; cited from earlier work
# T1 construct: expressed in transfected cells
# T1 sequence (P46098 24-478): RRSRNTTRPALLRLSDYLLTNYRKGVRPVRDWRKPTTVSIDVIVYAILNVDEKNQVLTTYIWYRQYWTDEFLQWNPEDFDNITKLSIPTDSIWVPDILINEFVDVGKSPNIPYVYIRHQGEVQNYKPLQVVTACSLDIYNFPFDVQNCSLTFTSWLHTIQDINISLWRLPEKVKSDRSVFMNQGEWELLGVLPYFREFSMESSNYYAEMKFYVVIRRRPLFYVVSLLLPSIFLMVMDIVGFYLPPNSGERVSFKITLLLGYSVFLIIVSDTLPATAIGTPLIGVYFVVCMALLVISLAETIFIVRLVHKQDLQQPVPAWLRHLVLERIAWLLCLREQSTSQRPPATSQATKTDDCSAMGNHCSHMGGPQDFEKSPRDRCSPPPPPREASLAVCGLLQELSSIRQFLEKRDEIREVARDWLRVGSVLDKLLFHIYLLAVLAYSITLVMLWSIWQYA
# human 5-HT3AR [2] = target: T1, human 5-HT3AR; assay: competition binding studies with [3H]granisetron
# Procedure: The photophysical properties of fluorescent granisetron derivatives were measured in MeOH and/or phosphate buffer at pH 7 (Table 1). […]. […] The binding affinities of the fluorescent granisetron probes for the human 5-HT3AR were determined by competition binding studies with [^3H]granisetron. […]. In terms of probe design it appears that optimal binding is obtained if the fluorophore is conjugated to N1 of granisetron via a short (butyl) aliphatic spacer. […]
# (5) Radioligand binding and fluorescence microscopy
# Materials, cell culture maintenance, receptor expression and radioligand binding for […]
# human 5-HT3A receptors = target: T2, human 5-HT3A receptors (Homo sapiens, UniProt P46098); assay: live cell imaging (fluorescence microscopy) of COS-7 cells transiently transfected with human 5-HT3A receptors; format: cell-based; conditions: 100 nM probe; for selectivity of staining: 5-HT3A-transfected versus mock transfected cells / detectable staining of cells: 1 h; for selectivity of staining: 5-HT3A-transfected versus mock transfected cells / inhibition of staining by co-incubation with ondansetron: live COS-7 cells; for selectivity of staining: 5-HT3A-transfected versus mock transfected cells: transfected vs mock transfected; for detectable staining of cells: HBS buffer, room temperature, live COS-7 cells transfected with human 5-HT3A; for inhibition of staining by co-incubation with ondansetron: co-incubation with ondansetron (OND) 10 μM
# T2 construct: myc; expressed in transfected cells; host or cells: COS-7
# T2 sequence (P46098 24-478): T1 sequence (P46098 24-478)
# Procedure: The utility of granisetron probes 16–18, 26–28 and 36 to fluorescently label the receptor was studied using live cell imaging of COS-7 cells transiently transfected with human 5-HT3A receptors.
# Figure 2 Fluorescent labeling of human 5-HT3AR in live COS-7 cells. Cells were either transfected with human 5HT3A cDNA (left and middle panels), or mock transfected (right panels). 24 h later they were incubated with 100 nM of probes 16, 18 or 28 in HBS buffer for 1 h at room temperature in the dark. The cells were imaged using a fluorescence microscope set to the appropriate absorption/emission wavelengths (Table 1). Some cells were also co-incubated with 10 μM ondansetron (OND, middle panels) to block 5-HT3 receptors. Scale bar represents 50 μm. […]
# (5) Radioligand binding and fluorescence microscopy […]
# For the fluorescence microscopy experiments COS-7 cells were transiently transfected with human 5-HT3A-myc cDNA (10 µg per transfection of […]) by electroporation (400 V, ∞ Ω, 125 µF), and grown on coverslips for 24 hours. Cells were washed with HBS then incubated with 100 nM of each probe (diluted in HBS) for 1 hour at room temperature in the dark. In some experiments 10 µM unlabelled ondansetron (OND) was co-incubated with the probes. Excess probe was removed by washing four times in HBS, and coverslips were placed in an imaging chamber with 1 ml HBS. Cells were then imaged using a fluorescence microscope set to the appropriate emission/excitation wavelengths. […]
# [3] = human 5-HT3AR, competition with [3H]granisetron, read-out: Ki (nM) mean ± SEM
SMILES,Ki (human 5-HT3AR [2]) [nM],Ki (human 5-HT3AR [2]; [3]) [nM],further results
COc1cccc2c1c(C(=O)NC1CC3CCCC(C1)N3C)nn2C (stereo not drawn) [Probe 2],–,–,Ki (human 5-HT3AR [1]): 26 ± 7 nM
COc1cccc2c(C(=O)NC3CC4CCCC(C3)N4C)nn(C)c12 (stereo not drawn) [Probe 5],–,–,Ki (human 5-HT3AR [1]): 71 ± 8 nM
Cc1cc(C)n2c1C=C1C=CC(CCC(=O)NCCCn3nc(C(=O)NC4CC5CCCC(C4)N5C)c4ccccc43)=[N+]1[B-]2(F)F (stereo not drawn) [Probe 6],–,–,Ki (human 5-HT3AR [1]): 2.8 ± 0.7 nM
COc1ccc(C2=[N+]3C(=Cc4c(C)c(CCC(=O)NCCCCCC(=O)NCCCn5nc(C(=O)NC6CC7CCCC(C6)N7C)c6ccccc65)c(C)n4[B-]3(F)F)C=C2)cc1 (stereo not drawn) [Probe 14],0.9 ± 0.3,–,–
CCN(CC)c1ccc2cc(C(=O)NCCCn3nc(C(=O)NC4CC5CCCC(C4)N5C)c4ccccc43)c(=O)oc2c1 (stereo not drawn) [Probe 15],199 ± 39,–,–
CN1C2CCCC1CC(NC(=O)c1nn(CCCNC(=S)Nc3ccc(-c4c5ccc(=O)cc-5oc5cc(O)ccc45)c(C(=O)O)c3)c3ccccc13)C2 (stereo not drawn) [Probe 16],–,1.6 ± 0.3,selectivity of staining: 5-HT3A-transfected versus mock transfected cells (human 5-HT3A receptors): selective staining for 5-HT3R; detectable staining of cells (human 5-HT3A receptors): detectable staining; inhibition of staining by co-incubation with ondansetron (human 5-HT3A receptors): inhibited by co-incubation with the 5-HT3R antagonist ondansetron
CCN(CC)c1ccc2cc(C(=O)NCCCCn3nc(C(=O)NC4CC5CCCC(C4)N5C)c4ccccc43)c(=O)oc2c1 (stereo not drawn) [Probe 17],–,7.3 ± 2.5,–
CN1C2CCCC1CC(NC(=O)c1nn(CCCCNC(=S)Nc3ccc(-c4c5ccc(=O)cc-5oc5cc(O)ccc45)c(C(=O)O)c3)c3ccccc13)C2 (stereo not drawn) [Probe 18],1.1 ± 0.2,–,selectivity of staining: 5-HT3A-transfected versus mock transfected cells (human 5-HT3A receptors): selective staining for 5-HT3R; detectable staining of cells (human 5-HT3A receptors): detectable staining; inhibition of staining by co-incubation with ondansetron (human 5-HT3A receptors): inhibited by co-incubation with the 5-HT3R antagonist ondansetron
CCN(CC)c1ccc2cc(C(=O)NCCOCCOCCn3nc(C(=O)NC4CC5CCCC(C4)N5C)c4ccccc43)c(=O)oc2c1 (stereo not drawn) [Probe 20],–,142 ± 5,–
CN1C2CCCC1CC(NC(=O)c1nn(CCOCCOCCNC(=S)Nc3ccc(-c4c5ccc(=O)cc-5oc5cc(O)ccc45)c(C(=O)O)c3)c3ccccc13)C2 (stereo not drawn) [Probe 21],–,6300,–
CCN(CC)c1ccc2c(-c3ccc(NC(=S)NCCOCCOCCn4nc(C(=O)NC5CC6CCCC(C5)N6C)c5ccccc54)cc3C(=O)[O-])c3ccc(=[N+](CC)CC)cc-3oc2c1 (stereo not drawn) [Probe 22],–,384 ± 68,–
CN1C2CCCC1CC(NC(=O)c1nn(CCCNc3ccc([N+](=O)[O-])c4nonc34)c3ccccc13)C2 (stereo not drawn) [Probe 26],–,8.7 ± 5.8,–
CN(C)c1cccc2c(S(=O)(=O)NCCCn3nc(C(=O)N[C@H]4C[C@H]5CCC[C@@H](C4)N5C)c4ccccc43)cccc12 [Probe 27],–,1.2 ± 0.6,–
CC1=CC(C)=[N+]2C1=C(CCCOC(=O)CCCn1nc(C(=O)NC3CC4CCCC(C3)N4C)c3ccccc31)c1c(C)cc(C)n1[B-]2(F)F (stereo not drawn) [Probe 28],–,1.6 ± 0.8,selectivity of staining: 5-HT3A-transfected versus mock transfected cells (human 5-HT3A receptors): intense fluorescence in both 5-HT3A- and mock-transfected cells; detectable staining of cells (human 5-HT3A receptors): detectable staining; inhibition of staining by co-incubation with ondansetron (human 5-HT3A receptors): not blocked by ondansetron
CCN(CC)c1ccc2cc(C(=O)NCCOc3cccc4c(C(=O)NC5CC6CCCC(C5)N6C)nn(C)c34)c(=O)oc2c1 (stereo not drawn) [Probe 36],1.9 ± 0.9,–,–
CCN(CC)c1ccc2cc(C(=O)NCCCOc3cccc4c(C(=O)N[C@H]5C[C@H]6CCC[C@@H](C5)N6C)nn(C)c34)c(=O)oc2c1 [Probe 37],157 ± 9,–,–
CCN(CC)c1ccc2cc(C(=O)NCCOCCOCCOc3cccc4c(C(=O)N[C@@H]5C[C@H]6CCC[C@@H](C5)N6C)nn(C)c34)c(=O)oc2c1 [Probe 38],–,1300,–
CN1[C@@H]2CCC[C@H]1C[C@@H](NC(=O)c1nn(C)c3c(OCCOCCOCCNC(=S)Nc4ccc(-c5c6ccc(=O)cc-6oc6cc(O)ccc56)c(C(=O)O)c4)cccc13)C2 [Probe 39],208 ± 55,–,–
